Tests used:
reprogramming BJ cells = assay: RNA sequencing of cells on day 3 of reprogramming; type: cell-based, human
Experimental: • RNA sequencing: mRNA sequencing was performed on the Illumina HiSeq2500 using the sequencing reagents and flow cells providing up to 300 Gb of sequence information per flow cell. Briefly, the quality of the total RNA was assessed using the Agilent 2100 Bioanalyzer followed by 2 rounds of polyA+ selection and conversion to cDNA. The stranded mRNA library generation kits were used per manufacturer's instructions (Agilent, Santa Clara, Calif.). Library construction consists of random fragmentation of the polyA mRNA, followed by cDNA production using random primers with inclusion of Actinomycin D in the first strand reaction. The ends of the cDNA are repaired, polyA-tailed and adaptors ligated for indexing (4 different barcodes per lane) during the sequencing runs. The cDNA libraries were quantitated using qPCR in a Roche LightCycler 480 with the Kapa Biosystems kit for library quantitation (Kapa Biosystems, Woburn, Mass.) prior to cluster generation. Clusters were generated to yield approximately 725 K to 825 K clusters/mm^2. Cluster density and quality were determined during the run after the first base addition parameters were assessed. Paired end 2×50 bp sequencing runs were run to align the cDNA sequences to the reference genome.
• Bioinformatics: 25-65 million of paired 51 bp reads were obtained for each sample. RNA sequencing reads were mapped to the human reference genome (GRCh37/hg19) using TopHat (v2.0.13) (Kim et al., (2013) Genome Biol. 14: R36). For more accurate mapping, the mean insert sizes and the standard deviations were calculated using Picard-tools (v1.126), and were passed to the mapper along with a Gene Transfer File (GTF version GRCh37.70) and the data were re-aligned. Read count tables were generated using HT-seq (v0.6.0) (Anders et al., (2015) Bioinformatics 31: 166-169). Deferential Expression (DE) analysis was performed using DESeq (v3.0) (Anders & Huber (2010) Genome Biol. 11: R106). Cufflinks v2.2.1 (Trapnell et al., (2010) Nat. Biotechnol. 28: 511-515) and Cummerbund v3.0 (Goff et al., (2014): Visualization and Exploration of Cufflinks High-throughput Sequencing Data., pp. 45) were also used for calculating expression levels in FPKM and data visualization. The BigWig files were generated using Bedtools (v2.17.0) (Quinlan & Hall (2010) Bioinformatics 26: 841-842) and bedGraphToBigWig tool (v4). For the analysis of micro-array data, Limma v3.0 (Smyth G. K., (2005) in Bioinformatics and Computational Biology Solutions Using R and Bioconductor: Gentleman et al., Eds. (Springer: New York): Ch. 23: pp. 397-420) was used Gene Ontology (GO) analysis was conducted using PANTHER (Mi et al., (2013) Nat. Protoc. 8: 1551-1566), Cytoscape-BiNGO (Saito et al., (2012) Nat. Methods 9: 1069-1076) and DAVID (Huang da et al., (2009) Nat. Protoc. 4: 44-57). Lists of mitotic genes were compiled based on the results from the three tools.

reprogramming cells = assay: Senescence analysis (SA-β-galactosidase staining) of reprogramming cells; type: cell-based, human; conditions: early stages of reprogramming (day 5)
From the text: • Senescence analysis: Prepare reprogramming cells as stated in the reprogramming section. At day 5 of reprogramming, stain cells for endogenous p-galactosidase using the Cell Senescence Kit (Cell Signaling Technology, #9860s) per manufacturer's instruction. Count the β-galactosidase^+ cells in 10 randomly selected fields in each treated groups. The total cells were counted based on DAPI staining.

BJ cells = assay: Reprogramming of human fibroblasts scored by TRA-1-60+ colonies/clusters; type: cell-based
Experimental: Briefly (FIG. 1A), 2×10^4 of BJ cells were seeded in each well of a 24-well plates. The second day, fibroblasts were transduced with OCT4 (10 MOI), SOX2 (5 MOI), KLF4 (5 MOI) along with 250 μl of individual kinase viral supernatant freshly packaged in one well of a 6-well plate. Twenty-two cDNAs were evaluated in one 24-well plate. One well is OSK control, and one well of cells is transduced with OSK plus 250 μl of GFP viral supernatant as a second control. Virus was removed next day with fresh fibroblast medium. Forty-eight hours after transduction, fibroblasts were transferred from one well into a 60-mm dish for continued reprogramming. The next day of re-seeding, fibroblast medium was replaced with E7 medium (E8 minus TGF beta) plus 100 μM of sodium butyrate. From day 18 of reprogramming on, E8 media was used. On day 25 of reprogramming, reprogramming dishes were stained for ALP or TRA-1-60 markers.
• Concentration of virus: The reprogramming viruses (OCT4, SOX2, KLF4, MYC and BET members) were concentrated before use except for library viruses. The lentiviral supernatant was centrifuged at 3,000×g for 10 mins at 4° C. to remove the cell debris. Thirty ml of the viral supernatant was then transferred into each 50-ml tube. 7 ml of 50% PEG-6000 stock solution (final concentration of 8.5%) and 4.1 ml of 4 M NaCl stock solution was added to each tube (final concentration of 0.4 M). The virus mixture was stored at 4° C. for 3-5 h.
• Cell culture and reprogramming: Human fibroblast cells (BJ ATCC CRL-2522®) were cultured in fibroblast medium: DMEM, 10% heat-inactivated FBS, 0.1 mM 2-mercaptoethanol, 100 U/ml penicillin, 100 μg/ml streptomycin, 0.1 mM MEM NEAA and 4 ng/ml human bFGF. For reprogramming, seed BJ cells into 24-well plate at 2×10^4 cells/well. Twenty-four hours after plating, pre-mix the OSK (OCT4, 10 MOI; SOX2, 5 MOI and KLF4, 5 MOI) viruses (shown in FIGS. 6B-6D, SEQ ID NO: 58-60, respectively), and add the OSK virus along with 250 μl supernatant of individual kinase virus into respective wells. Incubate overnight. Next morning, remove viruses by replacing virus-containing medium with fresh fibroblast medium. Twenty-four hours after transduction, the cells were re-seeded from one well into one matrigel-coated 60-mm dish. Next day, replace fibroblast medium with reprogramming media (E7 plus sodium butyrate at 100 μM). On 18 day, start to use E8 media. On day 25 of reprogramming, stain the reprogramming cells for alkaline phosphatase or TRA-1-60.

Substance: BRD3R: BRD3 with Reprogramming activity; 556 aa isoform of human BRD3 (AAH32124, SEQ ID NO: 47), encoded by cDNA L61
- expression of CDKN2A, CDKN2B, CDKN1A, TP53 (p53-p21 pathway) (reprogramming BJ cells; BRD3R reprogramming cells): Downregulation was not seen
- AFC of CEP78 (reprogramming BJ cells; day 3 of reprogramming): 0.94 ×
- AFC of ERG (reprogramming BJ cells; day 3 of reprogramming): 0.84 ×
- AFC of PSMB9 (reprogramming BJ cells; day 3 of reprogramming): 0.87 ×
- number of upregulated genes in the mitotic category (reprogramming BJ cells; of 335 GO mapped genes, day 3): 128 genes
- AFC of the 23 always upregulated mitotic genes (reprogramming BJ cells; p<0.05, day 3): at least 2.24 ×
- total mitotic genes statistically upregulated in at least one comparison (reprogramming BJ cells; ≥1.5×, p<0.05, 4 IFC and 1 AFC comparisons, day 3): 185 genes
- number of genes upregulated in BRD3R-expressing cells (reprogramming BJ cells; ≥1.7×, p<0.05, ADNRC≥50, day 3): 401 genes
- cell senescence (SA-β-galactosidase staining) (reprogramming cells): Reduced cell senescence
- appearance of abundant TRA-1-60+ clusters (BJ cells; combined with 3F (OCT4, SOX2, KLF4), controls infrequent before day 10): 6 days
- reprogramming activity (TRA-1-60+ colonies) (BJ cells; used with 3F in BJ cells, compared to OSK-GFP control): more TRA-1-60^+ colonies

From patent US20180163180A1, “METHOD OF ENHANCING SOMATIC CELL REPROGRAMMING WITH THE ACETYLLYSINE READER BRD3R” (THE UAB RESEARCH FOUNDATION, INC ., priority 2015, published 2018)
